The subject of experiment [1] is HCV1b replicon. Description: HCV Replicon Assay and EC50 Determination (Huh-7 cells, luciferase reporter). Type of experiment: cell-based. To be noted: Hepatitis C virus; Huh-7 cell line with HCV1b replicon containing luciferase reporter, 72 hr, triplicate assays. How it is done:
HCV Replicon Assay and EC50 Determination
The antiviral activity of compounds against hepatitis C virus was determined by a hepatitis C virus replicon reporter cell line developed by Bartenschlager (Lohmann et al., Science 1999, 285:110-113). This cell-based assay utilized a liver cell carcinoma (Huh-7) cell line stably transformed with an HCV1b replicon containing a luciferase reporter gene. Varied concentrations of compounds were added to the reporter cell line, and further incubated at 37° C. for 72 hr in DMEM supplemented with 10% FCS. The inhibitory effects of experimental compounds or the reference compound, interferon alpha (INFα), on HCV replication were measured by luciferase activity using the Britelite™ plus luminescence reporter gene kit (Perkin Elmer, Shelton, Conn.). The Britelite plus reagent was added to the 96-well plates containing the HCV reporter cells, and luminescence was measured within 15 min using a Wallac 1450 Microbeta® Trilux liquid scintillation counter. EC50 values were calculated using GraFit 6 and GraphPad Prism 5 from triplicate HCV replicon assays.
A general note: In antiviral work, replicon cells carry a viral genome segment that copies itself.

Experiment [2] concerns the target T1, HCV1b NS5B polymerase delta 21 (Hepatitis C virus genotype 1b, UniProt P26663).
T1 construct: purified HCV1b NS5B polymerase delta 21
The experiment in a line: RNA-Dependent RNA HCV NS5B (Polymerase) Assay and IC50 Determination. Type of experiment: biochemical. In outline: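 Purified NS5B Δ21 (0.6 μg) with polyA:U16 template, 10 μM UTP plus α-32P UTP in Tris-HCl pH 7.5, 5 mM MgCl2, 0.5% Triton X-100, 60 min at 23°C with varied compound concentrations. Radiolabelled RNA captured on filters, quantified by phosphorimaging; IC50 from triplicate assays.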

From US8771665B2 (Cocrystal Discovery, Inc., priority 2010, dated 2014) come the findings set out here.

Usually EC50 stands for the midpoint of the concentration-response curve. Low readings indicate an effect from little substance, high ones a need for much substance. The IC50 is the point on the concentration scale where inhibition reaches its midpoint. High values mean weaker potency, low ones greater potency.

Some results are limits rather than exact numbers.

T1 sequence (P26663 2420-2989): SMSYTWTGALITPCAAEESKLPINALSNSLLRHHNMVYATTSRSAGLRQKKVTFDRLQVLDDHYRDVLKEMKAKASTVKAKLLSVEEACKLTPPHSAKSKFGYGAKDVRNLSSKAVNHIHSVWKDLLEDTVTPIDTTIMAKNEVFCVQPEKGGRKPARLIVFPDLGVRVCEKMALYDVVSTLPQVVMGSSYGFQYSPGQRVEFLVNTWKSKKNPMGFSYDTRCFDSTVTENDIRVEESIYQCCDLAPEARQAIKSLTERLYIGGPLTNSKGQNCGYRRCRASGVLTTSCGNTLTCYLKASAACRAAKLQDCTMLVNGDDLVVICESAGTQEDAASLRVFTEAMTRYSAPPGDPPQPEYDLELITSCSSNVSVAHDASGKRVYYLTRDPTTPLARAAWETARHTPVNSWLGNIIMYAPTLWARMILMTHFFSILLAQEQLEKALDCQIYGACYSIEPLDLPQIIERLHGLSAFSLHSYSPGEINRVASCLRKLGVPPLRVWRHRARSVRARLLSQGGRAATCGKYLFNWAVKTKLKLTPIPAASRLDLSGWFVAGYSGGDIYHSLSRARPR

On to `CC1CCC(C2=C(c3cc(-c4ccccc4)sc3C(=O)O)CCN(C)C2)CC1` (stereo not drawn) [Example 001, 3-[1-Methyl-5-(4-methyl-cyclohexyl)-1,2,3,6-tetrahydro-pyridin-4-yl]-5-phenyl-thiophene-2-carboxylic acid], for which the EC50 in experiment [1] was under 3 µM. In experiment [2], this molecule had an IC50 of under 3 µM. On to `CC1CCC(C2=C(c3cc(C#CC(C)(C)C)sc3C(=O)O)CCN(C)C2)CC1` (stereo not drawn) [Example 003, 5-(3,3-Dimethyl-but-1-ynyl)-3-[1-methyl-5-(4-methyl-cyclohexyl)-1,2,3,6-tetrahydro-pyridin-4-yl]-thiophene-2-carboxylic acid], for which the EC50 in experiment [1] was under 3 µM. The IC50 in experiment [2] is under 3 µM. In experiment [1], `CC1CCC(C2=C(c3cc(-c4ccc(-c5cc6ncccn6n5)cc4)sc3C(=O)O)CCN(C)C2)CC1` (stereo not drawn) [Example 005, 3-[1-Methyl-5-(4-methyl-cyclohexyl)-1,2,3,6-tetrahydro-pyridin-4-yl]-5-(4-pyrazolo[1,5-a]pyrimidin-2-yl-phenyl)-thiophene-2-carboxylic acid] registered an EC50 of under 3 µM. The IC50 in experiment [2] is under 3 µM. As for `CC1CCC(C2=C(c3cc(-c4ccc(NC(=O)c5cscn5)cc4)sc3C(=O)O)CCN(C)C2)CC1` (stereo not drawn) [Example 013, 3-[1-Methyl-5-(4-methyl-cyclohexyl)-1,2,3,6-tetrahydro-pyridin-4-yl]-5-{4-[(thiazole-4-carbonyl)-amino]-phenyl}-thiophene-2-carboxylic acid], the EC50 in experiment [1] was under 3 µM. In experiment [2], this molecule yielded an IC50 of under 3 µM.

With `CC1CC=C(C2=C(c3cc(-c4ccccc4)sc3C(=O)O)CCN(C)C2)CC1` (stereo not drawn) [Example 109, 3-[1-Methyl-5-(4-methyl-cyclohex-1-enyl)-1,2,3,6-tetrahydro-pyridin-4-yl]-5-phenyl-thiophene-2-carboxylic acid], in experiment [1], the EC50 was over 10 µM. Besides, in experiment [2], the IC50 is under 3 µM.

The molecule `Cc1cc(C)n2nc(CN3CCC(c4cc(-c5ccc(NC(=O)c6cscn6)cc5)sc4C(=O)O)=C(C4CCC(C)CC4)C3)nc2n1` (stereo not drawn) [Example 130, 3-[1-(5,7-Dimethyl-[1,2,4]triazolo[1,5-a]pyrimidin-2-ylmethyl)-5-(4-methyl-cyclohexyl)-1,2,3,6-tetrahydro-pyridin-4-yl]-5-{4-[(thiazole-4-carbonyl)-amino]-phenyl}-thiophene-2-carboxylic acid] showed an EC50 in experiment [1] of under 3 µM. Moreover, the IC50 in experiment [2] is under 3 µM. Molecule `CC1CCC(C2=C(c3cc(C#CC4CC4)sc3C(=O)O)CN(C)CC2)CC1` (stereo not drawn) [Example 175, 5-Cyclopropylethynyl-3-[1-methyl-4-(4-methyl-cyclohexyl)-1,2,5,6-tetrahydro-pyridin-3-yl]-thiophene-2-carboxylic acid] showed an IC50 in experiment [2] of under 3 µM. Still for that read-out and setting: to `CC1CCC(C2=C(c3cc(C#CC4CCCC4)sc3C(=O)O)CN(C)CC2)CC1` (stereo not drawn) [Example 176, 5-Cyclopentylethynyl-3-[1-methyl-4-(4-methyl-cyclohexyl)-1,2,5,6-tetrahydro-pyridin-3-yl]-thiophene-2-carboxylic acid] belongs under 3 µM; to `CCCC(C)C#Cc1cc(C2=C(C3CCC(C)CC3)CCN(C)C2)c(C(=O)O)s1` (stereo not drawn) [Example 177, 5-(3-Methyl-hex-1-ynyl)-3-[1-methyl-4-(4-methyl-cyclohexyl)-1,2,5,6-tetrahydro-pyridin-3-yl]-thiophene-2-carboxylic acid], 3 to 10 µM.
